Here are results for three compounds from patent US20240109917A1 (ACTELION PHARMACEUTICALS LTD, priority 2020, published 2024).

Assay [1] concerns the target Tb-labeled inactive PDGFRβ (Homo sapiens (Human), UniProt P09619). Put plainly: PDGFRβ LanthaScreen Assay. The format is binding. The following applies: read-out: PDGFR Lantha IC50. (Time-resolved FRET reads energy transfer from a long-lived donor to a nearby acceptor.)
Another assay deals with VEGFR2, unphosphorylated (Homo sapiens (Human), UniProt P35968). Put plainly: VEGFR ADP GLO Assay. The format is biochemical.
Sequence of VEGFR2, unphosphorylated (P35968 20-1356): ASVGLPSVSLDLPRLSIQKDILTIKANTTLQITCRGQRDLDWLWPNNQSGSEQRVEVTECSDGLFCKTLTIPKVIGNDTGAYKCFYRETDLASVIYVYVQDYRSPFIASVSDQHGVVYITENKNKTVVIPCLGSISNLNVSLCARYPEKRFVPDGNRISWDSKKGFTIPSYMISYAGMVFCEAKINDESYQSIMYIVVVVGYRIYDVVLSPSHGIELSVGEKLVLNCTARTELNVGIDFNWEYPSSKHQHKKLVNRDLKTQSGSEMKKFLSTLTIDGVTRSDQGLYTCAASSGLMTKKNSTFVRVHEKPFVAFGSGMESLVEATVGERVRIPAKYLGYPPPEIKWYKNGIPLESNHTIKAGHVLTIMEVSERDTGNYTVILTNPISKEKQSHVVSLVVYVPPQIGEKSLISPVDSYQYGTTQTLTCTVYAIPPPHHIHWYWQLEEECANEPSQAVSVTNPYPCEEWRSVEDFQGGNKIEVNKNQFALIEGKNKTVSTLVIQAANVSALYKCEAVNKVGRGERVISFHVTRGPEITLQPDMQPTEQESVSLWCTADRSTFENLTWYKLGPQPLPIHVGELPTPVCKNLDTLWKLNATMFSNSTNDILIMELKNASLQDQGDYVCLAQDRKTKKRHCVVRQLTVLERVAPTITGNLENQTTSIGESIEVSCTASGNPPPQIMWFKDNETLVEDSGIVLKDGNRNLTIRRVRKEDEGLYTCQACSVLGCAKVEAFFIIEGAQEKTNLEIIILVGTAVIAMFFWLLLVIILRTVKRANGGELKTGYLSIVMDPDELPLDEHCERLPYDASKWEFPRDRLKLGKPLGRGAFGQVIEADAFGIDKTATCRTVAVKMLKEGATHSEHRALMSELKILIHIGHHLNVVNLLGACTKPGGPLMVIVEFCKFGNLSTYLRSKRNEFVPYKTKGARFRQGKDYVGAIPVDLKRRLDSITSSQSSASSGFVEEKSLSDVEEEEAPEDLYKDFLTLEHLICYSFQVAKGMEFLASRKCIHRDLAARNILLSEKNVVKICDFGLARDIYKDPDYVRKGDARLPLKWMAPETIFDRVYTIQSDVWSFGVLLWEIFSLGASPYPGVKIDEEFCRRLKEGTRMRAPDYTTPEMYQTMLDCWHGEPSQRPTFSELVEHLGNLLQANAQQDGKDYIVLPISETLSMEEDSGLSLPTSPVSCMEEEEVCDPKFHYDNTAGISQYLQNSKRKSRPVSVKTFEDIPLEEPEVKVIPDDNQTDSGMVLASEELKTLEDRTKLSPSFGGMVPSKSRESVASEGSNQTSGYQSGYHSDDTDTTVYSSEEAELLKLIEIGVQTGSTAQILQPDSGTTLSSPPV

Sequence of Tb-labeled inactive PDGFRβ (P09619 33-1106): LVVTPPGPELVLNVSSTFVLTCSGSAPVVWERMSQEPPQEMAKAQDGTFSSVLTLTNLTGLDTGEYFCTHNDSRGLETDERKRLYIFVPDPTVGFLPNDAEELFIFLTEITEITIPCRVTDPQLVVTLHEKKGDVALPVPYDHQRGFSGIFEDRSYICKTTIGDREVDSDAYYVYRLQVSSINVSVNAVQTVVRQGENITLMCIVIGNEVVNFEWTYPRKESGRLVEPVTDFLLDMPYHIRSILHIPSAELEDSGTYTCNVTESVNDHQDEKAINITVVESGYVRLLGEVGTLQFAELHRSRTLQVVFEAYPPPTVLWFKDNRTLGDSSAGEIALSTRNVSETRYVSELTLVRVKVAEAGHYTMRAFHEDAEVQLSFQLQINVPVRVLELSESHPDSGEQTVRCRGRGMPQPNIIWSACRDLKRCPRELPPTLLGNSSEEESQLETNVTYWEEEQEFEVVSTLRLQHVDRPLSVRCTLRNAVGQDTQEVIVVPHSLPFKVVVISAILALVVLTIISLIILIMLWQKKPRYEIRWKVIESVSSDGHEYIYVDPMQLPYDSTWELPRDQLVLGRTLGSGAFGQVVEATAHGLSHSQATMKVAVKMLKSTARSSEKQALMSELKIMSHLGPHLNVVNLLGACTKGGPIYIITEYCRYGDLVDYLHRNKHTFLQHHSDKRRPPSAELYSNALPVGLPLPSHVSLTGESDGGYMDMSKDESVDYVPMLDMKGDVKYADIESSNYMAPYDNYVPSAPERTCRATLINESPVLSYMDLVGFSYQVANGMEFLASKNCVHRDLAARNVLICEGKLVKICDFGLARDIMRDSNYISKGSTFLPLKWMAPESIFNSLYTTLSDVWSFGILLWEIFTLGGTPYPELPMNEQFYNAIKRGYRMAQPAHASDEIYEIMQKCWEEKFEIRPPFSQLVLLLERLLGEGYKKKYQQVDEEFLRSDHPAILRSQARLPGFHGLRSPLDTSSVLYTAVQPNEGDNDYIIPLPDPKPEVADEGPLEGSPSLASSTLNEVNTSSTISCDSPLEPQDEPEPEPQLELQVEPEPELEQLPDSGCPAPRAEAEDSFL

`COc1ncccc1-c1cn2ncc(C(=O)Nc3cc(NC(=O)CN4CCOC(C)(C)C4)cnc3C)c2s1` [Example 319, N-(5-(2-(2,2-dimethylmorpholino)acetamido)-2-methylpyridin-3-yl)-2-(2-methoxypyridin-3-yl)pyrazolo[5,1-b]thiazole-7-carboxamide]: the IC50 (commonly the point on the concentration scale where inhibition reaches its midpoint) in assay [1] was 1.8 nM; against VEGFR2, unphosphorylated, above 7.5 µM.

As for `Cc1ncc(NC(=O)CN(C)C2CCOCC2)cc1NC(=O)c1cnn2cc(-c3cnn(CC(N)=O)c3)sc12` [Example 300, 2-(1-(2-amino-2-oxoethyl)-1H-pyrazol-4-yl)-N-(2-methyl-5-(2-(methyl(tetrahydro-2H-pyran-4-yl)amino)acetamido)pyridin-3-yl)pyrazolo[5,1-b]thiazole-7-carboxamide], the IC50 was 12.4 nM in assay [1] and above 7.5 µM at VEGFR2, unphosphorylated.

`Cc1ncc(NC(=O)CN2CC(C)(C)C2)cc1NC(=O)c1cnn2cc(-c3ccc(CO)s3)sc12` [Example 278, N-(5-(2-(3,3-dimethylazetidin-1-yl)acetamido)-2-methylpyridin-3-yl)-2-(5-(hydroxymethyl)thiophen-2-yl)pyrazolo[5,1-b]thiazole-7-carboxamide]: the IC50 is 1.4 nM in assay [1] and above 7.5 µM against VEGFR2, unphosphorylated.
